Measurements taken from patent US7183319B2 (priority 2000, dated 2007).
“Also recorded” adds a separate entry of the source.

Assays:
[1] = bovine
mushroom tyrosinase = type: biochemical; conditions: for oxidation rate (Rmax) by tyrosinase: pH 7.4
in vitro = conditions: bovine, serum

Row | Compound | % decomposition over time, 1 hr [1] [%] | % decomposition over time, 2 hrs [1] [%] | % decomposition over time, 3 hrs [1] [%] | quality as tyrosinase substrate / oxidation rate in words (mushroom tyrosinase) | further results
1 | COc1cccc2c1C(=O)c1c(O)c3c(c(O)c1C2=O)C[C@@](O)(C(C)=O)C[C@@H]3OC1CC(NC(=O)NCCc2ccc(O)cc2)C(O)C(C)O1 (stereo partly drawn) [1.1.5] | 0 | 0 | 0 | poor substrate | % decomposition over time, 4 hrs [1]: 0%; % decomposition over time, 6 hrs [1]: 0%; % decomposition over time, 12 hrs [1]: 0%; % decomposition over time, 24 hrs [1]: 0%; % decomposition over time, 48 hrs [1]: 0%
2 | O=C(NCCc1ccc(O)cc1)Oc1ccc(N(CCCl)CCCl)cc1 [prodrug 21, {2′-(4″-Hydroxyphenyl)ethylamine) carbamic acid p-(bis-2-chloroethylamino) phenyl ester] |  |  |  |  | oxidation rate (Rmax) by tyrosinase (mushroom tyrosinase): 7.5 nmol/min
3 | O=C(NCCc1ccc(O)cc1)Oc1ccc(N(CCCl)CCCl)cc1 [1.1.1] | 7 | 44 | 61 |  | % decomposition over time, 4 hrs [1]: 74%; % decomposition over time, 6 hrs [1]: 100%; half-life (in vitro): ~2.5 h
4 | COC(=O)[C@H](Cc1ccc(O)cc1)NC(=S)Oc1ccc(N(CCCl)CCCl)cc1 [2.2.1] | 52 | 92 | 100 |  | half-life (in vitro): ~1.5 h
5 | O=C(NCCc1ccc(O)cc1)Oc1ccc(N(CCCl)CCCl)cc1 [prodrug 9, {2′-(4″-Hydroxyphenyl)ethyl} carbamic acid p-(bis-2-chloroethylamino)phenyl ster] |  |  |  | good substrates | 
6 | O=C(NCCSc1ccc(O)cc1)Oc1ccc(N(CCCl)CCCl)cc1 [prodrug 22] |  |  |  |  | oxidation rate (Rmax) by tyrosinase (mushroom tyrosinase): 7.5 nmol/min
7 | COC(=O)[C@@H](Cc1ccc(O)c(O)c1)NC(=O)Oc1ccc(N(CCCl)CCCl)cc1 [prodrug 16, (R)-[1′-Amino-2′-(3,4′-hydroxyphenyl)ethanonic acid methyl ester]-carbamic acid p-(bis-2-chloroethylamino) phenyl ester] |  |  |  |  | oxidation by tyrosinase within incubation period (mushroom tyrosinase): not oxidized by tryorinase; also recorded: not oxidised by tyrosinase
8 | O=C(NCCc1ccc(O)c(O)c1)Oc1ccc(N(CCCl)CCCl)cc1 [prodrug 10, {2′-(3″,4″-Dihydroxyphenyl)-ethyl} carbamic acid p-(bis-2-chloroethylamino) phenyl ester] |  |  |  | good substrates | 
